Results taken from US20160354333A1, “COMPOSITIONS OF POLYUNSATURATED FATTY ACIDS AND METHODS OF USE THEREOF” (UND Life Sciences, LLC, priority 2015, published 2016).
Where two headings read alike, the source gives them in different places. Values belong to the molecule of their own block, whether it stands above or below them.

How the values were obtained:
[1] = test system: IFN-sensitive / IFN-resistant tumor cells; assay: Apoptosis and lipid droplet accumulation in IFN-sensitive and IFN-resistant tumor cells; format: cell-based; settings: IFN-resistant cells pre-treated with GLA/AA, then exposed to IFN
From the text: The present inventor also unexpectedly discovered that the anti-cancer actions of interferon (IFN) and tumor necrosis factor-a (TNF-a) need the presence of substantial amounts of cellular content of GLA, AA, EPA and DHA (˜GLA≧AA>EPA>DHA).

[2] = test system: bone marrow cells of mice; assay: Side effects of gamma-radiation and cis-platinum on bone marrow cells of mice; format: in vivo
From the text: Thus, it appears that when PUFAs and conventional anti-cancer drugs/agents are given together they not only act to potentiate the cytotoxic action of each other on the tumor cells and thus, produce synergistic and/or additive action on their ability to eliminate the tumor cells but it will also lead to elimination, reduction, or amelioration of the side effects of conventional anti-cancer agents. Since, PUFAs are able to potentiate the cytotoxic action(s) of conventional anti-cancer drugs (agents) and cytokines; it is also possible that this will lead to a significant reduction in the doses of these latter agents without compromising the ultimate benefit namely, elimination of tumor cells or the tumor. Accordingly, certain embodiments are directed to methods comprising administering a PUFA (e.g., GLA) containing compositions as described herein and a conventional anti-cancer drug to a subject in need thereof.

tumor cells [3] = assay: Tumoricidal action: ability to induce apoptosis of tumor cells; format: cell-based
From the text: For instance, GLA is metabolized in the tumor cells to form 15-, 12- and 8-OH 20 carbon and 13-OH 18 carbon fatty acid derivatives that seem to be responsible for the apoptosis of tumor cells. In contrast to this, DGLA could go through an exclusive C-8 oxygenation pathway during COX-catalyzed lipid peroxidation in addition to a C-15 oxygenation pathway shared by both DGLA and AA, and that the exclusive C-8 oxygenation could lead to the production of distinct DGLA's free radical derivatives that may be correlated with DGLA's anti-proliferation activity. As shown below DGLA can go through a unique C-8 oxygenation reaction pathway, in addition to a C-15 oxygenation pathway shared by both DGLA and AA.
similar to the one that is formed from DGLA as described above) product, instead of the more common aldehyde. Thus, it is evident that the peroxidation products formed from GLA, DGLA and AA are totally different, and this may account for the differences in their tumoricidal action wherein GLA>DGA>AA with regard to their ability to induce apoptosis of tumor cells.

[4] = 1 mg GLA, 0.01% ethanol PBS/saline; GLA:lithium ratio exceeding about 1:0.01
Description: The effect of lithium as an exemplary stabilizing agent in compositions of GLA was tested as follows. To 1 mg (1000 μg) of GLA dissolved in a solution of PBS/saline comprising 0.01% ethanol was added different concentrations of lithium (as lithium chloride), and after a specific period of incubation the concentration of GLA present in the solution was tested.

[5] = Description: In a separate experiment, GLA was dissolved in saline/PBS (pH 7.4) comprising 0.01% ethanol at 37° C. or saline/PBS (pH 7.4), and different concentrations of lithium was added. At the end of the incubation time the concentration of GLA present was tested. […] The same test system is used to test the effect of Mg, Mn, Zn, Fe, Cu salts on the stability of GLA. The concentrations of these metals used are same as that of Lithium.
[6] = 0.01% ethanol/saline/PBS pH 7.4 at 37° C. versus saline/PBS, no lithium
From the text: FIG. 7 is additional stability data for GLA solutions comprising 0.01% ethanol/saline/PBS or saline/PBS without added lithium.

normal cells = settings: 10 μg/ml GLA, 1×10^4 cells, 72 hrs
From the text: FIG. 9 provides cytotoxicity data in normal cells for GLA solutions in varying concentrations of ethanol.

cancer = settings: free acid form versus other forms
From the text: In general, it was believed that the potency of actions of a free acid form is equal to or similar to sodium salt, ethyl ester, methyl ester or other forms of salts, esters, glycerides, amides, or phospholipids, or alkylated, alkoxylated, halogenated, sulfonated, or phosphorylated forms of the fatty acid.

cancer cells = settings: 72 hrs
Description: 1×10^4 cancer cells or normal cells were incubated with the GLA composition for 72 hrs and viability of the cells in vitro determined.

tumor cells [7] = settings: solvent (ethyl alcohol) content above 0.01% and lower than 0.001%
IMR-32 cells = assay: Growth of IMR-32 cells; format: cell-based; set-up: unit of the concentration uncertain
From the text: hypercalcemia, tumor cancer cell proliferation, tumor angiogenesis and resistance of tumor to anti-VEGF therapy (see FIG. 1). In addition, PGE2 may have the ability to modulate NO generation. […] Though this growth promoting action of indomethacin and NDGA could be attributed to their non-specific anti-oxidant actions, it is equally possible that some unknown products have been generated from PUFAs that have growth promoting actions. […] Accordingly, treatment of tumor cells with PUFAs according to embodiments of the invention is believed to be a viable treatment method for cancers, such as glioma.

Compound: CCCCC/C=C\C/C=C\C/C=C\C/C=C\CCCC(=O)O [AA, arachidonic acid, reference compound]
apoptosis and lipid droplets [1]: both induction of apoptosis and accumulation of lipid droplets in the tumor cells were seen | side effects of gamma-radiation and cis-platinum to bone marrow cells [2]: prevent or ameliorate the side effects | rank order of ability to induce apoptosis of tumor cells (tumor cells [3]): GLA>DGA>AA

Compound: CCCCC/C=C\C/C=C\C/C=C\CCCCCCC(=O)O [DGLA, di-homo gamma linolenic acid]
rank order of ability to induce apoptosis of tumor cells (tumor cells [3]): GLA>DGA>AA

stability of GLA (percentage of original GLA remaining) [4]: stability of GLA decreased | concentration of GLA relative to lithium ([5]; Mg, Mn, Zn, Fe, Cu salts, same concentrations and incubation periods as lithium): decrease the concentration of GLA | stability of GLA (percentage of original GLA remaining) ([5]; comparison solutions, printed as 'solutions with ethanol'): less stable | stability of GLA (percentage of original GLA remaining) ([5]; saline/PBS pH 7.4 with 0.01% ethanol at 37° C. plus lithium): stabilizing effect | stability of GLA (percentage of original GLA remaining) [6]: stabilizing effect
Compound: CCCCC/C=C\C/C=C\C/C=C\CCCCC(=O)O [GLA, gamma-linolenic acid]
background death of cells (normal cells): 10-15% | apoptosis and lipid droplets [1]: both induction of apoptosis and accumulation of lipid droplets in the tumor cells were seen | side effects of gamma-radiation and cis-platinum to bone marrow cells [2]: prevent or ameliorate the side effects | rank order of ability to induce apoptosis of tumor cells (tumor cells [3]): GLA>DGA>AA | potency of anti-cancer action (cancer): more potent than sodium salt, ethyl ester, methyl ester | generation of LXA4 (RIN cells; PUFAs 15 μg, pretreatment with alloxan, simultaneous treatment with STZ): greater than or equal to all other fatty acids tested | formation of LXA4 (RIN cells; studies performed in support of the invention): enhances the formation of LXA4 | background death of cells (cancer cells; 10 μg/ml GLA, 1×10^4 cells): 10-15% | activity, stability and tumoricidal action (tumor cells [7]): relatively inactive, unstable and its tumoricidal action inefficient

Compound: CCCCC/C=C\C\C=C/C=C/C=C/[C@@H](SC[C@H](N)C(=O)NCC(=O)O)[C@@H](O)CCCC(=O)O [LTD4]
growth of IMR-32 cells (IMR-32 cells): growth inhibitory action

Compound: CCCCC[C@H](O)/C=C/C=C\C=C\C=C\[C@@H](O)[C@@H](O)CCCC(=O)O [LXA4]
growth of IMR-32 cells (IMR-32 cells): inhibited the growth of IMR-32 cells

Compound: CCCCC[C@H](O)/C=C/[C@H]1[C@H](O)CC(=O)[C@@H]1CCCCCCC(=O)O [PGE1]
growth of IMR-32 cells (IMR-32 cells): growth inhibitory action

Compound: CCCCC[C@H](O)/C=C/[C@H]1[C@H](O)CC(=O)[C@@H]1C/C=C\CCCC(=O)O [PGE2]
growth of IMR-32 cells (IMR-32 cells): growth inhibitory action

Compound: CCO [ethanol]
concentration of ethanol resulting in cell death (cancer cells; with 10 μg/ml GLA in saline/PBS): above 0.01%

Compound: COc1ccc2c(c1)c(CC(=O)O)c(C)n2C(=O)c1ccc(Cl)cc1 [indomethacin]
growth of IMR-32 cells (IMR-32 cells; 60 (unit uncertain)): enhanced the growth of IMR-32 cells

Compound: CC(Cc1ccc(O)c(O)c1)C(C)Cc1ccc(O)c(O)c1 (stereo not shown) [nordihydroguaiaretic acid]
growth of IMR-32 cells (IMR-32 cells; 20 (unit uncertain)): enhanced the growth of IMR-32 cells
